How the values were obtained:
Type in all cases: in vivo
[1] = system: velvetleaf (Abutilon theophrasti); test: Test A pre-/postemergence: velvetleaf; conditions: for Velvetleaf plant response rating: Postemergence; for Plant response rating, Velvetleaf: Preemergence
Method in brief: (§1)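 Compounds, formulated with surfactant in non-phytotoxic solvent, were applied as a directed soil spray preemergence and as postemergence sprays to 2–10 cm, one- to two-leaf seedlings grown in loam soil blended with sand; visual injury, 0–100, assessed ~10 days post-treatment against untreated controls.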

[2] = system: pigweed (Amaranthus retroflexus); test: Test A pre-/postemergence: pigweed; conditions: for Pigweed plant response rating: Postemergence; for Plant response rating, Pigweed: Preemergence
Method in brief: as §1

rice (Oryza sativa) = test: Test C flooded paddy test: rice; conditions: scale 0 to 100 (0 no effect, 100 complete control)
Method in brief: (§2)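 Greenhouse plants treated at the 2-leaf stage by dosing the flood water (3 cm depth, maintained) were compared with controls after 13 to 15 days and rated 0 to 100, where 100 means complete control; a dash marks no test result.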

[3] = system: barnyardgrass (Echinochloa crus-galli); test: Test C flooded paddy test: barnyardgrass; conditions: scale 0 to 100 (0 no effect, 100 complete control)
Method in brief: as §2

[4] = system: foxtail, giant (giant foxtail, Setaria faberii); test: Test A pre-/postemergence: foxtail, giant; conditions: for Foxtail, Giant plant response rating: Postemergence; for Plant response rating, Foxtail, Giant: Preemergence
Method in brief: as §1

[5] = system: morningglory (Ipomoea spp.); test: Test A pre-/postemergence: morningglory; conditions: for Morningglory plant response rating: Postemergence; for Plant response rating, Morningglory: Preemergence
Method in brief: as §1

[6] = system: ducksalad (Heteranthera limosa); test: Test C flooded paddy test: ducksalad; conditions: scale 0 to 100 (0 no effect, 100 complete control)
Method in brief: as §2

[7] = system: barnyardgrass (Echinochloa crus-galli); test: Test A pre-/postemergence: barnyardgrass; conditions: for Barnyardgrass plant response rating: Postemergence; for Plant response rating, Barnyardgrass: Preemergence
Method in brief: as §1

[8] = system: sedge, umbrella (small-flower umbrella sedge, Cyperus difformis); test: Test C flooded paddy test: sedge, umbrella; conditions: scale 0 to 100 (0 no effect, 100 complete control)
Method in brief: as §2

[9] = system: wheat (Triticum aestivum); test: Test A pre-/postemergence: wheat; conditions: for Wheat plant response rating: Postemergence; for Plant response rating, Wheat: Preemergence
Method in brief: as §1

[10] = system: crabgrass, large (large crabgrass, Digitaria sanguinalis); test: Test A pre-/postemergence: crabgrass, large; conditions: for Crabgrass, Large plant response rating: Postemergence; for Plant response rating, Crabgrass, Large: Preemergence
Method in brief: as §1

corn (Zea mays) = test: Test A pre-/postemergence: corn; conditions: for Corn plant response rating: Postemergence; for Plant response rating, Corn: Preemergence
Method in brief: as §1

[11] = 125 g ai/ha, 0 to 100 scale, 0 is no effect, 100 is complete control
[12] = 500 g ai/ha, visual rating on 0 to 100 scale (0 no effect, 100 complete control), approximately ten days
[13] = 125 g ai/ha, 0 to 100 scale (0 no effect, 100 complete control)
[14] = 500 g ai/ha, 0 to 100 scale, 0 is no effect, 100 is complete control
[15] = Flood (flooded paddy test), 62 g ai/ha, visual rating after 13 to 15 days
[16] = Flood (flooded paddy test), 250 g ai/ha, visual rating after 13 to 15 days
[17] = Flood (flooded paddy test), 125 g ai/ha, visual rating after 13 to 15 days

Cc1nn(-c2ccc(Cl)cc2)nc1C(=O)c1cccc(C(F)(F)F)c1 [Compound 42]
Velvetleaf plant response rating [1, 11]: 10
Velvetleaf plant response rating [1, 12]: 20
Plant response rating, Velvetleaf [1, 13]: 0
Plant response rating, Velvetleaf [1, 14]: 0
Pigweed plant response rating [2, 11]: 50
Pigweed plant response rating [2, 12]: 90
Plant response rating, Pigweed [2, 13]: 10
Plant response rating, Pigweed [2, 14]: 60
Plant response rating, Rice (rice (Oryza sativa); [15]): 0
Plant response rating, Rice (rice (Oryza sativa); [16]): 0
Plant response rating, Barnyardgrass [3, 15]: 0
Plant response rating, Barnyardgrass [3, 16]: 0
Foxtail, Giant plant response rating [4, 11]: 10
Foxtail, Giant plant response rating [4, 12]: 20
Plant response rating, Foxtail, Giant [4, 13]: 10
Plant response rating, Foxtail, Giant [4, 14]: 70
Morningglory plant response rating [5, 11]: 10
Morningglory plant response rating [5, 12]: 50
Plant response rating, Morningglory [5, 13]: 0
Plant response rating, Morningglory [5, 14]: 10
Plant response rating, Ducksalad [6, 15]: 0
Plant response rating, Ducksalad [6, 16]: 0
Barnyardgrass plant response rating [7, 11]: 0
Barnyardgrass plant response rating [7, 12]: 10
Plant response rating, Barnyardgrass [7, 13]: 0
Plant response rating, Barnyardgrass [7, 14]: 10
Plant response rating, Sedge, Umbrella [8, 15]: 0
Plant response rating, Sedge, Umbrella [8, 16]: 0
Wheat plant response rating [9, 11]: 0
Wheat plant response rating [9, 12]: 10
Plant response rating, Wheat [9, 13]: 0
Plant response rating, Wheat [9, 14]: 0
Crabgrass, Large plant response rating [10, 11]: 10
Crabgrass, Large plant response rating [10, 12]: 30
Plant response rating, Crabgrass, Large [10, 13]: 10
Plant response rating, Crabgrass, Large [10, 14]: 50
Corn plant response rating (corn (Zea mays); [11]): 10
Corn plant response rating (corn (Zea mays); [12]): 10
Plant response rating, Corn (corn (Zea mays); [13]): 0
Plant response rating, Corn (corn (Zea mays); [14]): 0

Cc1nn(-c2ccc(C(F)(F)F)cc2)nc1C(=O)c1cccc(C(F)(F)F)c1 [Compound 45]
Velvetleaf plant response rating [1, 11]: 40
Velvetleaf plant response rating [1, 12]: 70
Plant response rating, Velvetleaf [1, 13]: 0
Plant response rating, Velvetleaf [1, 14]: 10
Pigweed plant response rating [2, 11]: 100
Pigweed plant response rating [2, 12]: 100
Plant response rating, Pigweed [2, 13]: 10
Plant response rating, Pigweed [2, 14]: 20
Plant response rating, Rice (rice (Oryza sativa); [15]): 0
Plant response rating, Rice (rice (Oryza sativa); [17]): 0
Plant response rating, Rice (rice (Oryza sativa); [16]): 0
Plant response rating, Rice (rice (Oryza sativa); Flood, 31 g ai/ha): 0
Plant response rating, Barnyardgrass [3, 15]: 0
Plant response rating, Barnyardgrass [3, 17]: 0
Plant response rating, Barnyardgrass [3, 16]: 0
Plant response rating, Barnyardgrass ([3]; Flood, 31 g ai/ha): 0
Foxtail, Giant plant response rating [4, 11]: 20
Foxtail, Giant plant response rating [4, 12]: 50
Plant response rating, Foxtail, Giant [4, 13]: 50
Plant response rating, Foxtail, Giant [4, 14]: 60
Morningglory plant response rating [5, 11]: 40
Morningglory plant response rating [5, 12]: 80
Plant response rating, Morningglory [5, 13]: 0
Plant response rating, Morningglory [5, 14]: 10
Plant response rating, Ducksalad [6, 15]: 0
Plant response rating, Ducksalad [6, 17]: 0
Plant response rating, Ducksalad [6, 16]: 0
Plant response rating, Ducksalad ([6]; Flood, 31 g ai/ha): 0
Barnyardgrass plant response rating [7, 11]: 10
Barnyardgrass plant response rating [7, 12]: 10
Plant response rating, Barnyardgrass [7, 13]: 0
Plant response rating, Barnyardgrass [7, 14]: 10
Plant response rating, Sedge, Umbrella [8, 15]: 0
Plant response rating, Sedge, Umbrella [8, 17]: 0
Plant response rating, Sedge, Umbrella [8, 16]: 0
Plant response rating, Sedge, Umbrella ([8]; Flood, 31 g ai/ha): 0
Wheat plant response rating [9, 11]: 10
Wheat plant response rating [9, 12]: 20
Plant response rating, Wheat [9, 13]: 0
Plant response rating, Wheat [9, 14]: 0
Crabgrass, Large plant response rating [10, 11]: 60
Crabgrass, Large plant response rating [10, 12]: 70
Plant response rating, Crabgrass, Large [10, 13]: 70
Plant response rating, Crabgrass, Large [10, 14]: 70
Corn plant response rating (corn (Zea mays); [11]): 10
Corn plant response rating (corn (Zea mays); [12]): 20
Plant response rating, Corn (corn (Zea mays); [13]): 0
Plant response rating, Corn (corn (Zea mays); [14]): 0

Cc1nn(-c2cnc(Cl)cn2)nc1C(=O)c1cccc(C(F)(F)F)c1 [Compound 50]
Velvetleaf plant response rating [1, 11]: 0
Velvetleaf plant response rating [1, 12]: 10
Plant response rating, Velvetleaf [1, 13]: 0
Plant response rating, Velvetleaf [1, 14]: 0
Pigweed plant response rating [2, 11]: 10
Pigweed plant response rating [2, 12]: 20
Plant response rating, Pigweed [2, 13]: 0
Plant response rating, Pigweed [2, 14]: 10
Plant response rating, Rice (rice (Oryza sativa); [15]): 0
Plant response rating, Rice (rice (Oryza sativa); [16]): 0
Plant response rating, Barnyardgrass [3, 15]: 0
Plant response rating, Barnyardgrass [3, 16]: 0
Foxtail, Giant plant response rating [4, 11]: 0
Foxtail, Giant plant response rating [4, 12]: 10
Plant response rating, Foxtail, Giant [4, 13]: 10
Plant response rating, Foxtail, Giant [4, 14]: 40
Morningglory plant response rating [5, 11]: 0
Morningglory plant response rating [5, 12]: 10
Plant response rating, Morningglory [5, 13]: 0
Plant response rating, Morningglory [5, 14]: 0
Plant response rating, Ducksalad [6, 15]: 0
Plant response rating, Ducksalad [6, 16]: 0
Barnyardgrass plant response rating [7, 11]: 0
Barnyardgrass plant response rating [7, 12]: 10
Plant response rating, Barnyardgrass [7, 13]: 0
Plant response rating, Barnyardgrass [7, 14]: 0
Plant response rating, Sedge, Umbrella [8, 15]: 0
Plant response rating, Sedge, Umbrella [8, 16]: 0
Wheat plant response rating [9, 11]: 0
Wheat plant response rating [9, 12]: 0
Plant response rating, Wheat [9, 13]: 0
Plant response rating, Wheat [9, 14]: 0
Crabgrass, Large plant response rating [10, 11]: 0
Crabgrass, Large plant response rating [10, 12]: 10
Plant response rating, Crabgrass, Large [10, 13]: 10
Plant response rating, Crabgrass, Large [10, 14]: 20
Corn plant response rating (corn (Zea mays); [11]): 0
Corn plant response rating (corn (Zea mays); [12]): 10
Plant response rating, Corn (corn (Zea mays); [13]): 0
Plant response rating, Corn (corn (Zea mays); [14]): 0
